Literature values in patent US7998503B2, “Form of administration for controlling primary headaches” (LTS Lohmann Therapie-Systeme AG, priority 2003, dated 2011).

Settings: nasally administered, literature report

CCN(CC)CC(=O)Nc1c(C)cccc1C [lidocaine]
effect on migraine pain after nasal administration (e.g. sprays): fast decline in migraine pain
renewed appearance of the pain after administration (shortly after administration): recurrence, meaning renewed appearance of the pain, was found shortly after administration
